Laboratory results published in US5122381A, “Composition and process for dissolving a sparingly water-soluble flavonoid” (San-Ei Chemical Industries, Ltd., priority 1989, dated 1992).

Key:
[1] = Dissolution of Rutin: rutin remaining in solution (supernatant, high-speed liquid chromatography); assay type: physicochemical; conditions: 13.5 wt. % of Glycoside I relative to rutin; standing 14 days at room temperature
Experimental: (§1) Water (100 ml) containing 12 W/V% of granulated sugar and 0.3 W/V% of citric acid was poured into each of five test tubes (100 ml) No. 1 to 5, to which 0.4 ml of rutin (10 W/V%) solution in ethanol (equivalent to 0.04 g of rutin) was added. Immediately thereafter, mixed was a solution of the Glycoside I (13.4 W/V%) in ethanol in amounts of 0.024 ml, 0.032 ml, 0.04 ml and 0.05 ml respectively to the test tubes No. 2 to 5. These amounts were equivalent to 8.0 wt. %, 10.8 wt. %, 13.5 wt. % and 16.0 wt. %, respectively relative to the amount of rutin.
(§2) All of these mixtures including No. 1 to which the Glycoside I had not been added were transparent when observed immediately after mixing. After standing for 24 hours, some mixtures were recognized to have precipitation. Standing was continued for 14 days at room temperature in observing precipitation states of the mixtures. On completion of this standing, rutin concentration of each supernatant liquid of the mixtures was measured using high-speed liquid chromatography.

[2] = Dissolution of Rutin: precipitation observed on standing with Glycoside I; assay type: physicochemical; parameters: key: ++: indicating the greatest degree of precipitation; +: precipitation was observed; -: indicating no observed precipitation; conditions: 0.04 wt % rutin
Experimental: as §1, §2
The "+" and "-" signs in Table 1 denote comparative amounts of precipitation of the rutin. The range extends from "++", indicating the greatest degree of precipitation, down to "-", indicating no observed precipitation.

## C[C@@H]1O[C@@H](OC[C@H]2O[C@@H](Oc3c(-c4ccc(O)c(O)c4)oc4cc(O)cc(O)c4c3=O)[C@H](O)[C@@H](O)[C@@H]2O)[C@H](O)[C@H](O)[C@H]1O [Rutin]
[1]
  rutin stably dissolved in water: at least 0.04 wt. %
[2]; No. 1, Glycoside I 0 wt % relative to rutin, 1st day
  Precipitation Observed: + +
[2]; No. 1, Glycoside I 0 wt % relative to rutin, 3rd day
  Precipitation Observed: + +
[2]; No. 1, Glycoside I 0 wt % relative to rutin, 6th day
  Precipitation Observed: + +
[2]; No. 1, Glycoside I 0 wt % relative to rutin, 14th day
  Precipitation Observed: + +
[2]; No. 2, Glycoside I 8.0 wt % relative to rutin, 1st day
  Precipitation Observed: +
[2]; No. 2, Glycoside I 8.0 wt % relative to rutin, 3rd day
  Precipitation Observed: +
[2]; No. 2, Glycoside I 8.0 wt % relative to rutin, 6th day
  Precipitation Observed: +
[2]; No. 2, Glycoside I 8.0 wt % relative to rutin, 14th day
  Precipitation Observed: +
